Results on 4 compounds are retold here after patent US10898502B2, “Treatment of diseases using a combination of ultraviolet blood irradiation and antibiotics” (priority 2014, dated 2021).

Data set [1] in a line: Adverse reactions seen in the treated patients. To be noted: Example 2 patient; medication discontinued.
For data set [2] the following is noted: human, in vivo.
Data set [3] deals with MAP. The following applies: cited from earlier work.
The test system of data set [4] is cathelicidin. To be noted: cited from earlier work.
For data set [5], the system named is M. tuberculosis. To be noted: cited from earlier work.

Take `NCC1(CC(=O)O)CCCCC1` [Gabapentin]: in data set [1], the “Tolerability at the lowest recommended dose” value is given as “very dizzy”.

Turning to `Cn1cnc([N+](=O)[O-])c1Sc1ncnc2nc[nH]c12` [azathioprine], the “Liver enzymes leading to discontinuation” value in data set [2] is “elevated ALT and AST”.

In the case of Vitamin A, the “Growth of MAP in vitro” value in data set [3] is on record as “inhibit the growth of MAP”.

As to Vitamin D, the “Intracellular production of cathelicidin” value in data set [4] is given as “induces”. Moreover, in data set [3], the “Growth of MAP in vitro” value is given as “inhibit the growth of MAP”. Moreover, in data set [5], the “Proliferation of M. tuberculosis in macrophages” value was “reduce the proliferation”.
